Measured values reported in patent US10617680B2 (CELGENE QUANTICEL RESEARCH, INC., priority 2017, dated 2020).

Target: CBP (Homo sapiens (Human), UniProt Q92793)
Test: In vitro CBP inhibition (AlphaScreen, biotinylated H4-tetraacetyl peptide)
Format: binding
Settings: AlphaScreen, Table 29; read-out: CBP IC50
Method in brief: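 His-tagged CBP expressed in E. coli (50 nM final) incubated with biotinylated H4K5/8/12/16(Ac) peptide (20 nM final) in 50 mM HEPES pH 7.3, 10 mM NaCl, 0.25 mM TCEP, 0.1% BSA, 0.005% Brij-35, 0.4% DMSO, 20 min at room temp.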

Chain of CBP (Q92793 1081-1197): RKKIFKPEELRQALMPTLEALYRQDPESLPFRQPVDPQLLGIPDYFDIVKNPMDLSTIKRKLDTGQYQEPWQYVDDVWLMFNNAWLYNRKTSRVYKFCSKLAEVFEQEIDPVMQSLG

`Cn1ccc(-c2cc(=O)n(C)cc2-c2cnn(-c3ccccc3C#N)c2)cc1=O` [Example 221, 2-[4-(1,1′-Dimethyl-6,2′-dioxo-1,6,1′,2′-tetrahydro-[4,4′]bipyridinyl-3-yl)-pyrazol-1-yl]-benzonitrile] and `Cn1cc(-c2cnn(-c3ccccc3C#N)c2)c(-c2ccn(C3CC3)c(=O)c2)cc1=O` [Example 222, 2-[4-(1′-Cyclopropyl-1-methyl-6,2′-dioxo-1,6,1′,2′-tetrahydro-[4,4′]bipyridinyl-3-yl)-pyrazol-1-yl]-benzonitrile] cannot be ordered by IC50: less than 0.5 µM for the first, less than 0.5 µM for the second.

`Cc1ccc(-c2cc(=O)n(C)cc2-c2cnn(-c3ccccc3C(=O)O)c2)cc1` [Example 224, 2-[4-(1-Methyl-6-oxo-4-p-tolyl-1,6-dihydro-pyridin-3-yl)-pyrazol-1-yl]-benzoic acid] and `Cn1cc(-c2cnn(-c3ccccc3C(=O)O)c2)c(-c2ccc(F)cc2)cc1=O` [Example 226, 2-{4-[4-(4-Fluoro-phenyl)-1-methyl-6-oxo-1,6-dihydro-pyridin-3-yl]-pyrazol-1-yl}-benzoic acid] cannot be ordered by IC50: less than 0.5 µM for the first, less than 0.5 µM for the second.

`Cn1cc(-c2cnn(-c3ccccc3C(=O)O)c2)c(-c2cccnc2)cc1=O` [Example 227, 2-[4-(1′-Methyl-6′-oxo-1′,6′-dihydro-[3,4′]bipyridinyl-3′-yl)-pyrazol-1-yl]-benzoic acid] and `Cn1cc(-c2cnn(-c3ccccc3C#N)c2)c(-c2cccnc2)cc1=O` [Example 237, 2-[4-(1′-Methyl-6′-oxo-1′,6′-dihydro-[3,4′]bipyridinyl-3′-yl)-pyrazol-1-yl]-benzonitrile] cannot be ordered by IC50: less than 0.5 µM for the first, less than 0.5 µM for the second.

`COc1ccc(-c2cc(=O)n(C)cc2-c2cnn(-c3ccccc3C(=O)O)c2)cn1` [Example 228, 2-[4-(6-Methoxy-1′-methyl-6′-oxo-1′,6′-dihydro-[3,4′]bipyridinyl-3′-yl)-pyrazol-1-yl]-benzoic acid] and `CCOc1ccc(-c2cc(=O)n(C)cc2-c2cnn(-c3ccccc3C(=O)O)c2)cn1` [Example 230, 2-[4-(6-Ethoxy-1′-methyl-6′-oxo-1′,6′-dihydro-[3,4′]bipyridinyl-3′-yl)-pyrazol-1-yl]-benzoic acid] cannot be ordered by IC50: less than 0.5 µM for the first, less than 0.5 µM for the second.

`CC(C)Oc1ccc(-c2cc(=O)n(C)cc2-c2cnn(-c3ccccc3C(=O)O)c2)cn1` [Example 231, 2-[4-(6-Isopropoxy-1′-methyl-6′-oxo-1′,6′-dihydro-[3,4′]bipyridinyl-3′-yl)-pyra.zol-1-yl]-benzoic acid] and `CC(C)COc1ccc(-c2cc(=O)n(C)cc2-c2cnn(-c3ccccc3C(=O)O)c2)cn1` [Example 232, 2-[4-(6-Isobutoxy-1′-methyl-6′-oxo-1′,6′-dihydro-[3,4′]bipyridinyl-3′-yl)-pyrazol-1-yl]-benzoic acid] cannot be ordered by IC50: less than 0.5 µM for the first, less than 0.5 µM for the second.

`CCOc1ccc(-c2cc(=O)n(C)cc2-c2cnn(-c3ccccc3C#N)c2)cn1` [Example 234, 2-[4-(6-Ethoxy-1′-methyl-6′-oxo-1′,6′-dihydro-[3,4′]bipyridinyl-3′-yl)-pyrazol-1-yl]-benzonitrile] and `COc1ccc(-c2cc(=O)n(C)cc2-c2cnn(-c3ccccc3C#N)c2)cn1` [Example 238, 2-(4-(6-methoxy-1′-methyl-6′-oxo-1′,6′-dihydro-[3,4′-bipyridin]-3′-yl)-1H-pyrazol-1-yl)benzonitrile] cannot be ordered by IC50: less than 0.5 µM for the first, less than 0.5 µM for the second.

`CC(C)Oc1ccc(-c2cc(=O)n(C)cc2-c2cnn(-c3ccccc3C#N)c2)cn1` [Example 235, 2-[4-(6-Isopropoxy-1′-methyl-6′-oxo-1′,6′-dihydro-[3,4′]bipyridinyl-3′-yl)-pyrazol-1-yl]-benzonitrile] and `CC(C)COc1ccc(-c2cc(=O)n(C)cc2-c2cnn(-c3ccccc3C#N)c2)cn1` [Example 236, 2-[4-(6-Isobutoxy-1′-methyl-6′-oxo-1′,6′-dihydro-[3,4′]bipyridinyl-3′-yl)-pyrazol-1-yl]-benzonitrile] cannot be ordered by IC50: less than 0.5 µM for the first, less than 0.5 µM for the second.

`Cc1cc(-c2cc(=O)n(C)cc2-c2cnn(-c3ccccc3C#N)c2)cn(C)c1=O` [Example 239, 2-(4-(1,1′,5-trimethyl-6,6′-dioxo-1,1′,6,6′-tetrahydro-[3,4′-bipyridin]-3′-yl)-1H-pyrazol-1-yl)benzonitrile] and `Cn1cc(-c2cnn(-c3ccccc3C#N)c2)c(-c2c[nH]c(=O)c(F)c2)cc1=O` [Example 240, 2-(4-(5-fluoro-1′-methyl-6,6′-dioxo-1,1′,6,6′-tetrahydro-[3,4′-bipyridin]-3′-yl)-1H-pyrazol-1-yl)benzonitrile] cannot be ordered by IC50: less than 0.5 µM for the first, less than 0.5 µM for the second.

`COc1cccc(-c2cc(=O)n(C)cc2-c2cnn(-c3ccccc3C#N)c2)c1` [Example 241, 2-{4-[4-(3-Methoxy-phenyl)-1-methyl-6-oxo-1,6-dihydro-pyridin-3-yl]-pyrazol-1-yl}-benzonitrile] and `COc1ccc(C#N)c(-n2cc(-c3cn(C)c(=O)cc3-c3ccccc3)cn2)c1` [Example 261, 4-Methoxy-2-[4-(1-methyl-6-oxo-4-phenyl-1,6-dihydro-pyridin-3-yl)-pyrazol-1-yl]-benzonitrile] cannot be ordered by IC50: less than 0.5 µM for the first, less than 0.5 µM for the second.

`COc1cncc(-c2cc(=O)n(C)cc2-c2cnn(-c3ccccc3C#N)c2)c1` [Example 242, 2-(4-(5-methoxy-1′-methyl-6′-oxo-1′,6′-dihydro-[3,4′-bipyridin]-3′-yl)-1H-pyrazol-1-yl)benzonitrile] and `COc1ncc(-c2cc(=O)n(C)cc2-c2cnn(-c3ccccc3C#N)c2)cn1` [Example 244, 2-{4-[4-(2-Methoxy-pyrimidin-5-yl)-1-methyl-6-oxo-1,6-dihydro-pyridin-3-yl]-pyrazol-1-yl}-benzonitrile] cannot be ordered by IC50: less than 0.5 µM for the first, less than 0.5 µM for the second.

First: COc1ccc(-c2cc(=O)n(C)cc2-c2cnn(-c3ccccc3C#N)c2)cc1OC [Example 243, 2-(4-(4-(3,4-dimethoxyphenyl)-1-methyl-6-oxo-1,6-dihydropyridin-3-yl)-1H-pyrazol-1-yl)benzonitrile]
Second: COc1cc(-c2cc(=O)n(C)cc2-c2cnn(-c3ccccc3C#N)c2)cc(OC)c1OC [Example 246, 2-{4-[1-Methyl-6-oxo-4-(3,4,5-trimethoxy-phenyl)-1,6-dihydro-pyridin-3-yl]-pyrazol-1-yl}-benzonitrile]
The IC50 of the first is lower: less than 0.5 µM for the first, 0.5 to 5 µM for the second. The first is the more potent here.

`CNc1ncc(-c2cc(=O)n(C)cc2-c2cnn(-c3ccccc3C#N)c2)cn1` [Example 245, 2-(4-(1-methyl-4-(2-(methylamino)pyrimidin-5-yl)-6-oxo-1,6-dihydropyridin-3-yl)-1H-pyrazol-1-yl)benzonitrile] and `Cc1cc(-c2cnn(-c3ccccc3C#N)c2)cn(C)c1=O` [Example 254, 2-[4-(1,5-Dimethyl-6-oxo-1,6-dihydro-pyridin-3-yl)-pyrazol-1-yl]-benzonitrile] cannot be ordered by IC50: less than 0.5 µM for the first, less than 0.5 µM for the second.

`CCOc1cc(=O)n(C)cc1-c1cnn(-c2cc(OC)ccc2C(=O)O)c1` [Example 247, 2-[4-(4-Ethoxy-1-methyl-6-oxo-1,6-dihydro-pyridin-3-yl)-pyrazol-1-yl]-4-methoxy-benzoic acid] and `CCOc1cc(=O)n(C)cc1-c1cnn(-c2cc(OC3CC3)ccc2C(=O)O)c1` [Example 248, 4-Cyclopropoxy-2-[4-(4-ethoxy-1-methyl-6-oxo-1,6-dihydro-pyridin-3-yl)-pyrazol-1-yl]-benzoic acid] cannot be ordered by IC50: less than 0.5 µM for the first, less than 0.5 µM for the second.

`CCOc1cc(=O)n(C)cc1-c1cnn(-c2ccccc2C(=O)O)c1` [Example 249, 2-(4-(4-ethoxy-1-methyl-6-oxo-1,6-dihydropyridin-3-yl)-1H-pyrazol-1-yl)benzoic acid] and `CCOc1cc(=O)n(C)cc1-c1cnn(-c2ccccc2F)c1` [Example 252, 4-ethoxy-5-(1-(2-fluorophenyl)-1H-pyrazol-4-yl)-1-methylpyridin-2(1H)-one] cannot be ordered by IC50: less than 0.5 µM for the first, less than 0.5 µM for the second.

`CCOc1cc(=O)n(C)cc1-c1cnn(-c2cccc(C#N)c2)c1` [Example 251, 3-(4-(4-ethoxy-1-methyl-6-oxo-1,6-dihydropyridin-3-yl)-1H-pyrazol-1-yl)benzonitrile] and `CCOc1cc(=O)n(C)cc1-c1cnn(-c2ccccn2)c1` [Example 253, 4-ethoxy-1-methyl-5-(1-(pyridin-2-yl)-1H-pyrazol-4-yl)pyridin-2(1H)-one] cannot be ordered by IC50: less than 0.5 µM for the first, less than 0.5 µM for the second.

First: Cc1cc(-c2cnn(-c3ccccc3C(=O)O)c2)cn(C)c1=O [Example 255, 2-[4-(1,5-Dimethyl-6-oxo-1,6-dihydro-pyridin-3-yl)-pyrazol-1-yl]-benzoic acid]
Second: CCc1cc(-c2cnn(-c3ccccc3C(=O)O)c2)cn(C)c1=O [Example 257, 2-[4-(5-Ethyl-1-methyl-6-oxo-1,6-dihydro-pyridin-3-yl)-pyrazol-1-yl]-benzoic acid]
The IC50 of the first is lower: less than 0.5 µM for the first, 0.5 to 5 µM for the second. The first is the more potent here.

`CCc1cc(-c2cnn(-c3ccccc3C#N)c2)cn(C)c1=O` [Example 256, 2-[4-(5-Ethyl-1-methyl-6-oxo-1,6-dihydro-pyridin-3-yl)-pyrazol-1-yl]-benzonitrile] and `Cc1cc(-c2cnn(-c3cc(Oc4ccccc4)ccc3C#N)c2)cn(C)c1=O` [Example 258, 2-[4-(1,5-Dimethyl-6-oxo-1,6-dihydro-pyridin-3-yl)-pyrazol-1-yl]-4-phenoxy-benzonitrile] cannot be ordered by IC50: less than 0.5 µM for the first, less than 0.5 µM for the second.

Compared with `Cc1cc(-c2cnn(-c3cc(Oc4ccccc4)ccc3C(=O)O)c2)cn(C)c1=O` [Example 259, 2-[4-(1,5-Dimethyl-6-oxo-1,6-dihydro-pyridin-3-yl)-pyrazol-1-yl]-4-phenoxy-benzoic acid], `COc1ccc(C#N)c(-n2cc(-c3cn(C)c(=O)cc3-c3ccc(=O)[nH]c3)cn2)c1` [Example 260, 4-Methoxy-2-[4-(1′-methyl-6,6′-dioxo-1,6,1′,6′-tetrahydro-[3,4′]bipyridinyl-3′-yl)-pyrazol-1-yl]-benzonitrile] is lower in IC50: greater than 5 µM for the first, less than 0.5 µM for the second. The second is the more potent here.

`COc1ccc(C#N)c(-n2cc(-c3cn(C)c(=O)cc3-c3ccc(F)cc3)cn2)c1` [Example 263, 2-{4-[4-(4-Fluoro-phenyl)-1-methyl-6-oxo-1,6-dihydro-pyridin-3-yl]-pyrazol-1-yl}-4-methoxy-benzonitrile] was tested, and the IC50 was less than 0.5 µM.
